Where a name gives a salt, the structure may show the parent alone.
Legend:
[1] = tested on: breast cancer cell line T47D; assay: MTT cancer cell cytotoxicity assay, T47D; type: cell-based, human; settings: Homo sapiens, T47D cells, 48-72 h
Outline: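 Human T47D breast cancer cells, cultured per ATCC recommendations with 10% fetal bovine serum and penicillin/streptomycin, were plated at 3000 cells/well in 96-well plates. After overnight attachment they were exposed in triplicate to compounds (10 μM to 1 nM) for 48-72 h. MTT was then added for 4 h and the formazan dissolved in DMSO. Absorbance at 550 nm minus 660 nm was fitted in Prism 5 to give IC50.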

[2] = tested on: Human lung cancer cell line A549; assay: MTT cancer cell cytotoxicity assay, A549; type: cell-based; settings: Homo sapiens, A549 cells, 48-72 h
Outline: (§1)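 Seeding: HepG2 and A549 at 3000, SMMC7721 at 5000, B16F10 at 2000 cells/well, attached overnight. Compounds (10 μM to 1 nM, triplicate) were applied for 48-72 h at 37 °C, followed by 4 h MTT. A550 minus A660 was fitted for IC50, with untreated wells as maximum and reference-drug total kill as background.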

[3] = tested on: liver cancer cell line HepG2; assay: MTT cancer cell cytotoxicity assay, HepG2; type: cell-based, human; settings: Homo sapiens, HepG2 cells, 48-72 h
Outline: as §1

caspase-3 activation = assay: Caspase-3 activation (apoptosis induction) in T-47D cells; type: cell-based; settings: Homo sapiens; T47D cells, 24 h treatment; read-out: EC50 to induce caspase-3 activation, T47D
Description: Identification of 3-(2-methoxyphenyl)-6-(4-methoxyphenyl)-[1,2,4]triazolo[4,3-a]pyridine and analogs as inducers of apoptosis in solid tumor cells
Human breast cancer cell line T-47D and lung cancer cell line A549, growing in DMEM/F12+10% FBS media were seeded to a density of 20000 cells/well in 96-well cell culture plate and grew overnight (18-24 h) in CO2 cell culture incubator at 37° C. Next day the medium were removed by aspiration and […] fresh growth media was added to each well followed by […] of growth media containing 10× concentration of reference or testing compounds with 10% DMSO. Twenty four hours later, cell culture plates were centrifuged at 1000 g for 5 min and the supernatant was removed by emptying contents into a reservoir. Fifty μl of Lysis Buffer (10 mM Tris, pH7.5, 0.1M NaCl, 1 Mm EDTA, 0.01% Triton X-100) was added to each well and the plates were incubated with gentle agitation on an orbital shaker at 4° C. for 30 min. The plates were then centrifuged at 1000 g for 10 min at 4° C. and 20 μl of the supernatant was transferred from each well to a corresponding well in a black 384-well. Twenty μl of caspase-3 assay buffer (20 mM PIPES, pH7.4, 4 Mm EDTA and 0.2% CHAPS) containing 20 μM fluorogenic caspase-3 substrate ((Ac-DEVD)2-R110, AnaSpec Cat #60304-5) was added to each well. The samples were mixed by agitation and incubated at 37° C. for 3 h. The fluorescent intensity of each well was read on a fluorescent plate reader (Varioskan Flash, Thermo Fisher Scientific) with excitation wavelength at 496 nm and emission wavelength at 520 nm. The activity of compounds on caspase-3 activation was determined by plotting the relative fluorescent unit (RFU) against the testing concentrations of the compounds. The EC50 values were determined by fitting the above responding curves into Prism sigmoidal dose-response equation (GraphPad Software, Inc).

[4] = tested on: liver cancer cell line SMMC7721; assay: MTT cancer cell cytotoxicity assay, SMMC7721; type: cell-based, human; settings: Homo sapiens, SMMC-7721, SMMC7721 cells, 48-72 h
Outline: as §1

[5] = tested on: mouse melanoma cell line B16F10; assay: MTT cancer cell cytotoxicity assay, B16F10; type: cell-based; settings: Mus musculus, B16-F10, B16F10 cells, 48-72 h
Description: Identification of 3-(2-methoxyphenyl)-6-(4-methoxyphenyl)-[1,2,4]triazolo[4,3-a]pyridine and analogs as inhibitors of cell proliferation that were evaluated with standard MTT cancer cell cytotoxicity assay (IC50)
Human lung cancer cell line A549, breast cancer cell line T47D, liver cancer cell lines HepG2 and SMMC7721 as well as a mouse melanoma cell line B16F10 were used in the study. The cells were cultured in corresponding growth media recommended by American Type Culture Collection (ATCC) with the supplementation of penicillin G (100 U/ml)/streptomycin (100 µg/ml), and 10% fetal bovine serum (Hangzhou Sijiqing Biological Engineering Materials, Co., Ltd. China) at 37° C. in a humidified atmosphere containing 5% CO2. Cells at about 80% confluency were harvested by trypsinization. Cells were centrifuged, re-suspended in fresh growth media and counted. Corresponding numbers of cells were seeded to 96-well cell culture plates (HepG2 cell, T-47D and A549 cells at 3000 cells/well, SMMC-7721 cells at 5000 cells/well and B16F10 cells at 2000 cells/well) in a total volume of […]. Cells were incubated in CO2 incubator over night to allow the cells to attach. In next day, […] of medium containing testing (from 10 μM to 1 nM) or reference compounds was added to each well of the cells. Media without compound were used as 100% control. Cells were treated with each concentration of compounds in triplicates to ensure data accuracy. Cells were incubated with compounds in CO2 incubator for an additional 48-72 h at 37° C. After incubation, cells were removed from the CO2 incubator and […] of 5 mg/ml MTT (3-(4,5-dimethylthiazole-2-yl)-2,5-diphenyltetrazoliumbromide, Sigma) solution in PBS was added to each well. Cells were returned to CO2 incubator and incubated for additional 4 h. After the incubation, media were removed by aspiration and […] DMSO was added to each well. Plates were sealed with aluminum foil and shaked mildly on an orbital shaker for 10 min at room temperature. The absorption was measured at 550 nm with a plate reader (Varioskan Flash, Thermo Fisher Scientific) with 660 nm reading used as background control. The relative absorbance readings were calculated by subtracting readings at 660 nm from that at 550 nm. The relative absorbance was plotted again the concentrations of the testing compounds and the plots were fitted with a one-site lg(IC50) equation using Prism 5 software (GraphPad Software, Inc). The equation used in the curve fitting is as follows: relative absorbance reading=background reading+(maximal reading−brackground reading)/(1+10 ^(compound concentration-log IC50)). The background reading used in the calculation was obtained with 100% cell death using a reference anticancer drug, whereas the maximal reading was obtained in the well with no added compound. The IC50 value calculated from the equation represents the cytotoxic potency of a particular compound.

Row | Compound | EC50 (caspase-3 activation) [nM] | IC50 [1] [nM] | IC50 [2] [nM] | IC50 [3] [nM] | IC50 [4] [nM] | IC50 [5] [nM]
1 | COc1ccccc1-c1nnc2ccc(-c3ccc(N(C)C)cc3)cn12 [Example 17, 6-(4-Dimethylaminophenyl)-3-(2-methoxyphenyl)-[1,2,4]triazolo[4,3-a]pyridine] | 86 | 65 | 29 | 48 | 14 | 
2 | CNc1ccc(-c2ccc3nnc(-c4ccccc4OC)n3c2)cc1 [Example 48, 6-(4-Methylaminophenyl)-3-(2-methoxyphenyl)-[1,2,4]triazolo[4,3-a]pyridine hydrochloride] | 74 | 18 | 26 | 31 | 11 | 
3 | COc1ccc(-c2ccc3nnc(-c4ccc(C(F)(F)F)cc4OC)n3c2)cc1 [Example 60, 3-(2-Methoxy-4-trifluoromethylphenyl)-6-(4-methoxyphenyl)-[1,2,4]triazolo[4,3-a]pyridine] |  | 68 | 91 | 41 | 18 | 37
4 | COc1ccc(-c2ccc3nnc(-c4ccc([N+](=O)[O-])cc4OC)n3c2)cc1 [Example 70, 3-(2-Methoxy-4-nitrophenyl)-6-(4-methoxyphenyl)-[1,2,4]triazolo[4,3-a]pyridine] | 22 | 13 | 6.7 | 22 | 9.9 | 4.4
5 | COc1ccc(-c2ccc3nnc(-c4ccc(OC)cc4OC)n3c2)cc1 [Example 71, 3-(2,4-Dimethoxyphenyl)-6-(4-methoxyphenyl)-[1,2,4]triazolo[4,3-a]pyridine] | 117 | 22 | 16 | 15 | 8.7 | 
6 | CNc1ccc(-c2ccc3nnc(-c4ccc(Cl)cc4OC)n3c2)cc1 [Example 88, 3-(4-Chloro-2-methoxyphenyl)-6-(4-methylaminophenyl)-[1,2,4]triazolo[4,3-a]pyridine] |  | 3.6 | 4.4 | 6 | 1.8 | 5.1
7 | COc1cc(Cl)ccc1-c1nnc2ccc(-c3ccc(C)c(N)c3)cn12 [Example 90, 6-(3-Amino-4-methylphenyl)-3-(4-chloro-2-methoxyphenyl)-[1,2,4]triazolo[4,3-a]pyridine] |  | 5.5 | 7.1 | 5.4 | 2.3 | 4.6
8 | COc1cc(C)ccc1-c1nnc2ccc(-c3ccc(C)c(N)c3)cn12 [Example 91, 6-(3-Amino-4-methylphenyl)-3-(4-methyl-2-methoxyphenyl)-[1,2,4]triazolo[4,3-a]pyridine] |  | 31 | 42 | 39 | 13 | 23
9 | CNc1ccc(-c2ccc3nnc(-c4ccc(C)cc4OC)n3c2)cc1 [Example 92, 6-(4-Methylaminophenyl)-3-(4-methyl-2-methoxyphenyl)-[1,2,4]triazolo[4,3-a]pyridine] |  | 8.8 | 11 | 23 | 23 | 7.7

Further lines, with some results ahead:

Row | EC50 (caspase-3 activation) [nM] | Compound | IC50 [1] [nM] | IC50 [2] [nM] | IC50 [3] [nM] | IC50 [4] [nM] | IC50 [5] [nM]
10 | 16 | COc1ccc(-c2ccc3nnc(-c4ccccc4OC)n3c2)cc1O [Example 20, 6-(3-Hydroxy-4-methoxyphenyl)-3-(2-methoxyphenyl)-[1,2,4]triazolo[4,3-a]pyridine] | 18 | 13 | 11 | > 10000 | 18
11 | 23 | COc1ccc(-c2ccc3nnc(-c4ccccc4OC)n3c2)cc1N [Example 46, 6-(3-Amino-4-methoxyphenyl)-3-(2-methoxyphenyl)-[1,2,4]triazolo[4,3-a]pyridine hydrochloride] | 9.7 | 9.4 | 9.9 | 5.7 | 3.7
12 | 9.3 | COc1ccc(-c2ccc3nnc(-c4ccc(Cl)cc4OC)n3c2)cc1F [Example 49, 3-(4-Chloro-2-methoxyphenyl)-6-(3-fluoro-4-methoxyphenyl)-[1,2,4]triazolo[4,3-a]pyridine] | 4.5 | 4.9 | 3.3 | 4.6 | 4.9
13 | 3.5 | COc1ccc(-c2ccc3nnc(-c4ccc(Cl)cc4OC)n3c2)cc1N [Example 50, 6-(3-Amino-4-methoxyphenyl)-3-(4-chloro-2-methoxyphenyl)-[1,2,4]triazolo[4,3-a]pyridine] | 1.1 | 1.7 | 1.4 | 1.3 | 1.6
14 | 2.8 | COc1ccc(-c2ccc3nnc(-c4ccc(C)cc4OC)n3c2)cc1O [Example 51, 6-(3-Hydroxy-4-methoxyphenyl)-3-(2-methoxy-4-methylphenyl)-[1,2,4]triazolo[4,3-a]pyridine] | 1.1 | 4 | 1.1 | > 10000 | 2.1
15 | 5.4 | COc1ccc(-c2ccc3nnc(-c4ccc(C)cc4OC)n3c2)cc1N [Example 52, 6-(3-Amino-4-methoxyphenyl)-3-(2-methoxy-4-methylphenyl)-[1,2,4]triazolo[4,3-a]pyridine] | 2 | 2.6 | 2.3 | 1.8 | 2.1
16 | 9.1 | COc1ccc(-c2ccc3nnc(-c4ccc(C)cc4OC)n3c2)cc1F [Example 53, 6-(3-Fluoro-4-methoxyphenyl)-3-(2-methoxy-4-methylphenyl)-[1,2,4]triazolo[4,3-a]pyridine] | 6.7 | 7.4 | 5.7 | 8.3 | 6.2
17 | 25 | COc1ccc(-c2ccc3nnc(-c4ccc(Br)cc4OC)n3c2)cc1 [Example 59, 3-(4-Bromo-2-methoxyphenyl)-6-(4-methoxyphenyl)-[1,2,4]triazolo[4,3-a]pyridine] | 6.6 | 12 | 7.1 | 3.8 | 6.1

Reference: US9199983B2, “3-aryl-6-aryl-[1,2,4]triazolo[4,3-α]pyridines as inhibitors of cell proliferation and the use thereof” (priority 2010, dated 2015)
